In ChEMBL document CHEMBL5154737, “Semisynthesis and biological evaluation of (+)-sclerotiorin derivatives as antitumor agents for the treatment of hepatocellular carcinoma” (Eur J Med Chem, 2022):
The source made the active and inactive calls. The calls are words filed in the database; no cut-off is given here.

How the values were obtained:
[1] = Acute toxicity in ICR mouse assessed as change in amount of food intake at 100 to 500 mg/kg, ip; assay type: organism-based; conditions: in vivo, dose 100-500 mg/kg
[2] = Toxicity in ICR mouse assessed as change in platelet distribution width at 100 mg/kg, ip qd (reference value: 16.7); assay type: organism-based; conditions: in vivo
[3] = Toxicity in BALB/c nude mouse xenografted with Bel-7402 cells assessed as change in body weight at 20 mg/kg, ip qd measured every 2 days for 14 days; assay type: organism-based; conditions: in vivo, 336 h, time 14 day
[4] = tested on: Bel-7402; assay: Induction of apoptosis in human Bel-7402 cells assessed as necrotic cells at 2.5 uM incubated for 24 hrs by Annexin V and Dead cell kit assay (reference value: 1.6 %); assay type: functional
[5] = Tmax in Sprague-Dawley rat at 20 mg/kg, ip measured for 0.03 to 24 hrs by UPLC-MS analysis; assay type: ADME, organism-based; conditions: in vivo, time 0.03-24 hrs
[6] = tested on: Bel-7402; assay: Disruption of mitochondrial membrane potential in human Bel-7402 cells incubated for 24 hrs by Rho-123 staining based flow cytometry analysis; assay type: functional, cell-based; conditions: dose <= 5.0 µM, DDE = dose-dependent effect
[7] = tested on: Bel-7402; assay: Induction of apoptosis in human Bel-7402 cells assessed as increase in cleaved PARP upto 2.5 uM incubated for 24 hrs by Western blot analysis; assay type: functional, cell-based
[8] = Biodistribution in kidney of mouse bearing tumor measured after 24 hr by ICG dye based fluorescence imaging; assay type: ADME, organism-based; conditions: in vivo
[9] = tested on: Bel-7402; assay: Induction of ERK degradation in human Bel-7402 cells at 2.5 uM incubated for 24 hrs in presence of choro-quine by Western blot analysis; assay type: cell-based
[10] = Biodistribution in tumor of mouse bearing tumor measured after 4 hr by ICG dye based fluorescence imaging; assay type: ADME, organism-based, Neoplasm; conditions: in vivo
[11] = tested on: Bel-7402; assay: Induction of apoptosis in human Bel-7402 cells assessed as late apoptotic cells at 0.313 uM incubated for 24 hrs by Annexin V and dead cell assay kit (reference value: 4.45 %); assay type: functional
[12] = tested on: Bel-7402; assay: Induction of apoptosis in human Bel-7402 cells assessed as early apoptotic cells at 2.5 uM incubated for 24 hrs by Annexin V and Dead cell kit assay (reference value: 3.7 %); assay type: functional
[13] = tested on: Bel-7402; assay: Induction of apoptosis in human Bel-7402 cells assessed as viable cells at 0.313 uM incubated for 24 hrs by Annexin V and dead cell assay kit (reference value: 91.00%); assay type: functional; conditions: read-out: Activity
[14] = Toxicity in ICR mouse assessed as change in neutrophile granulocyte level at 100 mg/kg, ip qd (reference value: 21.6 %); assay type: organism-based; conditions: in vivo
[15] = tested on: Bel-7402; assay: Induction of apoptosis in human Bel-7402 cells assessed as early apoptotic cells at 2.5 uM incubated for 24 hrs by Annexin V and dead cell assay kit (reference value: 3.75 %); assay type: functional
[16] = Toxicity in ICR mouse assessed as change in mean platelet volume at 100 mg/kg, ip qd (reference value: 5.6 fL); assay type: organism-based; conditions: in vivo
[17] = tested on: PANC-1; assay: Cytotoxicity against human PANC-1 cells assessed as reduction in cell viability incubated for 72 hrs by MTT assay; assay type: functional, cell-based; conditions: PANC-1, 72 h
[18] = tested on: Bel-7402; assay: Induction of ERK degradation in human Bel-7402 cells at 2.5 uM incubated for 24 hrs in presence of Z-vad-fmk by Western blot analysis; assay type: cell-based
[19] = tested on: Bel-7402; assay: Induction of apoptosis in human Bel-7402 cells assessed as early apoptotic cells at 0.313 uM incubated for 24 hrs by Annexin V and dead cell assay kit (reference value: 3.75 %); assay type: functional
[20] = Half life in Sprague-Dawley rat at 20 mg/kg, ip measured for 0.03 to 24 hrs by UPLC-MS analysis; assay type: ADME, organism-based; conditions: in vivo, time 0.03-24 hrs
[21] = tested on: Bel-7402; assay: Induction of apoptosis in human Bel-7402 cells assessed as dead cells at 5 uM incubated for 24 hrs by Annexin V and dead cell assay kit (reference value: 0.80 %); assay type: functional
[22] = tested on: Bel-7402; assay: Induction of apoptosis in human Bel-7402 cells assessed as necrotic cells at 2.5 uM incubated for 24 hrs in presence of U0126 by Annexin V and Dead cell kit assay (reference value: 1.6 %); assay type: functional
[23] = Chronic toxicity in ICR mouse assessed as effect on liver morphology at 100 mg/kg, ip qd measured after 26 days by H and E staining method; assay type: organism-based; conditions: in vivo, 624 h, time 26 day
[24] = Chronic toxicity in ICR mouse assessed as effect on heart morphology at 100 mg/kg, ip qd measured after 26 days by H and E staining method; assay type: organism-based; conditions: in vivo, 624 h, time 26 day
[25] = Toxicity in BALB/c nude mouse xenografted with human Bel-7402 cells assessed as behavioural change at 10 to 20 mg/kg, ip bid; assay type: organism-based; conditions: in vivo, dose 10-20 mg/kg
[26] = tested on: Bel-7402; assay: Upregulation of total protein ubiquitination level in human Bel-7402 cells at 2.5 uM by Western blot analysis; assay type: functional, cell-based; conditions: time <= 12.0 hrs, TDE = time-dependent effect

For `CC[C@H](C)/C=C(C)/C=C/C1=CC2=C(Cl)C(=O)[C@](C)(O)C(=O)C2=CN1Cc1ccc(OC(F)(F)F)cc1`, the Activity [1] was “Non-Toxic”, the Activity [2] was 18.3 and the Activity [3] was “Non-Toxic”. The Activity [4] was 11.15%, the Tmax [5] was 0.75 h and the Activity [6] was “Dde”. For the same molecule, the Activity [7] was “Active”, the Activity [8] was “Active” and the Activity [9] was “Active”. The Activity [10] was “Active”, the Activity [11] was 1.6% and the Activity [12] was 25.8%. It also gave a viability at 0.313 µM [13] of 94.3%, an Activity [14] of 41.6% and an Activity [15] of 16.55%. The Activity [16] was 6.7 fL, the IC50 [17] was 2.29 µM and the Activity [18] was “Active”. For the same molecule, the Activity [19] was 3.75%, the half-life [20] was 2.5 h and the Activity [21] was 8.15%. The Activity [22] was 7.75%, the Activity [23] was “Non-Toxic” and the Activity [24] was “Non-Toxic”. For the same molecule, the Activity [25] was “Non-Toxic” and the Activity [26] was “Tde”.
